Measurements from patent US8217079B2 (priority 2010, dated 2012).

Legend:
[1] = system: JAK2^V617F positive Polycythemia Vera; experiment: Phase II study of ITF2357 in combination with N-hydroxyurea in Polycythemia Vera; type: in vivo, human
Description: A multicentre, randomized, open-label, phase II study testing Givinostat-Hydrochloride-Monohydrate (ITF2357) in combination with N-hydroxyurea (HU) in Polycythemia Vera (PV).
Population in the study: 44 patients of both genders with an established diagnosis of JAK2^V617F positive PV according to the revised WHO criteria, in need of cytoreductive therapy, non-responders to therapeutic doses of HU monotherapy for at least 3 months.
Duration of the treatment: up to a maximum of 24 weeks of continual administration.
Primary objective: To evaluate the efficacy of ITF2357 in combination with HU in patients with JAK2^V617F positive Polycythemia Vera non-responders to therapeutic doses of HU in monotherapy.
Results: Patients response has been evaluated according to the european criteria [as reported in G. Barosi et al. Blood 113, 4829-4833 (2009)].

[2] = system: stem cells obtained from PV or ET patients; settings: sub-micromolar concentrations; cited from earlier work
PRV-1 gene expression = settings: in vivo; cited from earlier work
[3] = patients on cytostatic therapy; cited from earlier work
PV = settings: patients with PV; cited from earlier work

CCN(CC)Cc1ccc2cc(COC(=O)Nc3ccc(C(=O)NO)cc3)ccc2c1.Cl [ITF2357, Diethyl-[6-(4-hydroxycarbamoyl-phenylcarbamoyloxymethyl)-naphthalen-2-ylmethyl]-ammonium chloride]
control of the clinico-hematologic parameters (response by european criteria) ([1]; ITF2357 50 mg/day combined with N-hydroxyurea 500 mg/day, preliminary data, 6 patients refractory to previous HU monotherapy): significant control of the clinico-hematologic parameters
amelioration of the clinical parameters ([1]; in combination with N-hydroxyurea, compared to HU monotherapy, patients with myeloproliferative syndromes, preferably polycythemia vera): significant amelioration of the clinical parameters
clonogenic activity of stem cells [2]: inhibit the clonogenic activity

NC(=O)NO [N-hydroxyurea, reference compound]
PRV-1 gene expression (PRV-1 gene expression): increase
side effects observed (drug tolerance) [3]: leg ulcers and buccal aphthous ulcers

O=C(CCBr)N1CCN(C(=O)CCBr)CC1 [Pipobroman]
side effects observed (drug tolerance) [3]: gastric pain and diarrhea

IFN-α
PRV-1 expression (PRV-1 gene expression): significantly reduces
efficacy of therapy compared with N-hydroxyurea treatment (PV): more effective
